pIC50: −log10 of the molar value.
Test system: 299254-011-R-J1-PDC complex spheroid viability
Test: Anticancer human tumor 299254-011-R-J1-PDC patient-derived melanoma cell line growth inhibition [POLQ]
Details: for pIC50: curve of first compound; for viability, T/C: stronger effect = lower value
Outline: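 Three-cell-type spheroids modelling solid tumor plus stroma served as the readout system; POL inhibitors were tested individually and in combination, concentration ranges set by clinical Cmax where known.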

[1] = second compound 0.0316 µM, first compound 0.0316 µM
[2] = second compound 0.0316 µM, first compound 0.1 µM
[3] = second compound 0.0316 µM, first compound 0.316 µM
[4] = second compound 0.0316 µM, first compound 1 µM
[5] = second compound 0.0316 µM, first compound 3.16 µM
[6] = second compound 0.0316 µM, first compound 10 µM
[7] = second compound 0.1 µM, first compound 0.0316 µM
[8] = second compound 0.1 µM, first compound 0.1 µM
[9] = second compound 0.1 µM, first compound 0.316 µM
[10] = second compound 0.1 µM, first compound 1 µM
[11] = second compound 0.1 µM, first compound 3.16 µM
[12] = second compound 0.1 µM, first compound 10 µM
[13] = second compound 0.316 µM, first compound 0.0316 µM
[14] = second compound 0.316 µM, first compound 0.1 µM
[15] = second compound 0.316 µM, first compound 0.316 µM
[16] = second compound 0.316 µM, first compound 1 µM
[17] = second compound 0.316 µM, first compound 3.16 µM
[18] = second compound 0.316 µM, first compound 10 µM
[19] = second compound 1 µM, first compound 0.0316 µM
[20] = second compound 1 µM, first compound 0.1 µM
[21] = second compound 1 µM, first compound 0.316 µM
[22] = second compound 1 µM, first compound 1 µM
[23] = second compound 1 µM, first compound 3.16 µM
[24] = second compound 1 µM, first compound 10 µM
[25] = second compound 3.16 µM, first compound 0.0316 µM
[26] = second compound 3.16 µM, first compound 0.1 µM
[27] = second compound 3.16 µM, first compound 0.316 µM
[28] = second compound 3.16 µM, first compound 1 µM
[29] = second compound 3.16 µM, first compound 3.16 µM
[30] = second compound 3.16 µM, first compound 10 µM
[31] = second compound 10 µM, first compound 0.0316 µM
[32] = second compound 10 µM, first compound 0.1 µM
[33] = second compound 10 µM, first compound 0.316 µM
[34] = second compound 10 µM, first compound 1 µM
[35] = second compound 10 µM, first compound 3.16 µM
[36] = second compound 10 µM, first compound 10 µM
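Further: spheroids exposed to drugs for one week before measurement.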
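Wherever viability, T/C is given: percent viability relative to DMSO vehicle control taken as 100%.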

Compound: Nc1ccn(C2OC(CO)C(O)C2(F)F)c(=O)n1 (stereo not drawn) + COC1C(OC(N)=O)C(O)C(Oc2ccc3c(O)c(NC(=O)c4ccc(O)c(CC=C(C)C)c4)c(=O)oc3c2C)OC1(C)C
- pIC50 (second compound 0.0316 µM): 7.09
- pIC50 (second compound 0.1 µM): 7.12
- pIC50 (second compound 0.316 µM): 7.20
- pIC50 (second compound 1 µM): 7.10
- pIC50 (second compound 3.16 µM): > 7.50
- pIC50 (second compound 10 µM): 7.18
- viability, T/C [1]: 62.8%
- viability, T/C [2]: 44.3%
- viability, T/C [3]: 41.2%
- viability, T/C [4]: 35.1%
- viability, T/C [5]: 46.8%
- viability, T/C [6]: 44.4%
- viability, T/C [7]: 60.1%
- viability, T/C [8]: 40.6%
- viability, T/C [9]: 52.4%
- viability, T/C [10]: 37.7%
- viability, T/C [11]: 35.6%
- viability, T/C [12]: 39.2%
- viability, T/C [13]: 64.7%
- viability, T/C [14]: 40.6%
- viability, T/C [15]: 36.6%
- viability, T/C [16]: 30.9%
- viability, T/C [17]: 44.7%
- viability, T/C [18]: 41.2%
- viability, T/C [19]: 71.6%
- viability, T/C [20]: 44.4%
- viability, T/C [21]: 46.6%
- viability, T/C [22]: 33.8%
- viability, T/C [23]: 48.9%
- viability, T/C [24]: 45.5%
- viability, T/C [25]: 57%
- viability, T/C [26]: 38.8%
- viability, T/C [27]: 35%
- viability, T/C [28]: 39.6%
- viability, T/C [29]: 31.3%
- viability, T/C [30]: 42.4%
- viability, T/C [31]: 61%
- viability, T/C [32]: 44.1%
- viability, T/C [33]: 39.1%
- viability, T/C [34]: 39.3%
- viability, T/C [35]: 48.9%
- viability, T/C [36]: 31.4%

Compound: CCc1cc2c(N3CCc4c(cc(Cn5ccnc5)cc4-c4cn(C)nc4C(F)(F)F)C3=O)cc(C)nc2c(OC)n1 + Cc1cccc(N(C)C(=O)C2C(O)CCN2c2nc(C)cc(C(F)(F)F)c2C#N)c1
- pIC50 (second compound 0.0316 µM): < 5.00
- pIC50 (second compound 0.1 µM): < 5.00
- pIC50 (second compound 0.316 µM): < 5.00
- pIC50 (second compound 1 µM): < 5.00
- pIC50 (second compound 3.16 µM): < 5.00
- pIC50 (second compound 10 µM): < 5.00
- viability, T/C [1]: 96.3%
- viability, T/C [2]: 92.5%
- viability, T/C [3]: 96.6%
- viability, T/C [4]: 104%
- viability, T/C [5]: 94.8%
- viability, T/C [6]: 61.3%
- viability, T/C [7]: 109%
- viability, T/C [8]: 109%
- viability, T/C [9]: 90.3%
- viability, T/C [10]: 94.8%
- viability, T/C [11]: 80.9%
- viability, T/C [12]: 71.3%
- viability, T/C [13]: 108%
- viability, T/C [14]: 115%
- viability, T/C [15]: 121%
- viability, T/C [16]: 106%
- viability, T/C [17]: 87.9%
- viability, T/C [18]: 65.3%
- viability, T/C [19]: 105%
- viability, T/C [20]: 100%
- viability, T/C [21]: 99.7%
- viability, T/C [22]: 90.2%
- viability, T/C [23]: 88.3%
- viability, T/C [24]: 58.5%
- viability, T/C [25]: 117%
- viability, T/C [26]: 98.3%
- viability, T/C [27]: 95.3%
- viability, T/C [28]: 84.5%
- viability, T/C [29]: 80.2%
- viability, T/C [30]: 70.2%
- viability, T/C [31]: 109%
- viability, T/C [32]: 117%
- viability, T/C [33]: 106%
- viability, T/C [34]: 82.2%
- viability, T/C [35]: 77.8%
- viability, T/C [36]: 58.6%

Compound: CC(=O)O[C@H]1C(=O)[C@@]2(C)[C@H]([C@H](OC(=O)c3ccccc3)[C@]3(O)C[C@H](OC(=O)[C@H](O)[C@@H](NC(=O)c4ccccc4)c4ccccc4)C(C)=C1C3(C)C)[C@]1(OC(C)=O)CO[C@@H]1C[C@@H]2O + COC1C(OC(N)=O)C(O)C(Oc2ccc3c(O)c(NC(=O)c4ccc(O)c(CC=C(C)C)c4)c(=O)oc3c2C)OC1(C)C
- pIC50 (second compound 0.0316 µM): 6.97
- pIC50 (second compound 0.1 µM): 7.15
- pIC50 (second compound 0.316 µM): 7.14
- pIC50 (second compound 1 µM): 7.14
- pIC50 (second compound 3.16 µM): 6.91
- pIC50 (second compound 10 µM): 7.04
- viability, T/C (second compound 0.0316 µM, first compound 0.00949 µM): 77.3%
- viability, T/C (second compound 0.0316 µM, first compound 0.03 µM): 75.9%
- viability, T/C (second compound 0.0316 µM, first compound 0.0949 µM): 53.4%
- viability, T/C (second compound 0.0316 µM, first compound 0.3 µM): 23.2%
- viability, T/C (second compound 0.0316 µM, first compound 0.949 µM): 21.8%
- viability, T/C (second compound 0.0316 µM, first compound 3 µM): 15.9%
- viability, T/C (second compound 0.1 µM, first compound 0.00949 µM): 97%
- viability, T/C (second compound 0.1 µM, first compound 0.03 µM): 63.3%
- viability, T/C (second compound 0.1 µM, first compound 0.0949 µM): 46.7%
- viability, T/C (second compound 0.1 µM, first compound 0.3 µM): 30.9%
- viability, T/C (second compound 0.1 µM, first compound 0.949 µM): 21.4%
- viability, T/C (second compound 0.1 µM, first compound 3 µM): 16%
- viability, T/C (second compound 0.316 µM, first compound 0.00949 µM): 101%
- viability, T/C (second compound 0.316 µM, first compound 0.03 µM): 73.1%
- viability, T/C (second compound 0.316 µM, first compound 0.0949 µM): 41.4%
- viability, T/C (second compound 0.316 µM, first compound 0.3 µM): 29.5%
- viability, T/C (second compound 0.316 µM, first compound 0.949 µM): 21.2%
- viability, T/C (second compound 0.316 µM, first compound 3 µM): 20%
- viability, T/C (second compound 1 µM, first compound 0.00949 µM): 95.1%
- viability, T/C (second compound 1 µM, first compound 0.03 µM): 70%
- viability, T/C (second compound 1 µM, first compound 0.0949 µM): 43.8%
- viability, T/C (second compound 1 µM, first compound 0.3 µM): 27.1%
- viability, T/C (second compound 1 µM, first compound 0.949 µM): 22.2%
- viability, T/C (second compound 1 µM, first compound 3 µM): 18.3%
- viability, T/C (second compound 3.16 µM, first compound 0.00949 µM): 90.7%
- viability, T/C (second compound 3.16 µM, first compound 0.03 µM): 68.3%
- viability, T/C (second compound 3.16 µM, first compound 0.0949 µM): 61.3%
- viability, T/C (second compound 3.16 µM, first compound 0.3 µM): 31.5%
- viability, T/C (second compound 3.16 µM, first compound 0.949 µM): 22.6%
- viability, T/C (second compound 3.16 µM, first compound 3 µM): 16.8%
- viability, T/C (second compound 10 µM, first compound 0.00949 µM): 86.6%
- viability, T/C (second compound 10 µM, first compound 0.03 µM): 84.9%
- viability, T/C (second compound 10 µM, first compound 0.0949 µM): 47.1%
- viability, T/C (second compound 10 µM, first compound 0.3 µM): 28%
- viability, T/C (second compound 10 µM, first compound 0.949 µM): 21.6%
- viability, T/C (second compound 10 µM, first compound 3 µM): 17.6%

Compound: C=CC(=O)N1CCN(c2nc(=O)n(-c3c(C)ccnc3C(C)C)c3nc(-c4c(O)cccc4F)c(F)cc23)C(C)C1 (stereo not drawn) + Nc1ccc(C#CCN(C(=O)Cc2ncc(C(F)(F)F)cc2C(F)(F)F)c2ccc(F)cc2)nn1
- pIC50 (second compound 0.0316 µM): < 5.00
- pIC50 (second compound 0.1 µM): < 5.00
- pIC50 (second compound 0.316 µM): < 5.00
- pIC50 (second compound 1 µM): < 5.00
- pIC50 (second compound 3.16 µM): < 5.00
- pIC50 (second compound 10 µM): < 5.00
- viability, T/C [1]: 77.4%
- viability, T/C [2]: 83.6%
- viability, T/C [3]: 80%
- viability, T/C [4]: 84.9%
- viability, T/C [5]: 88.7%
- viability, T/C [6]: 70.2%
- viability, T/C [7]: 86.9%
- viability, T/C [8]: 75.2%
- viability, T/C [9]: 80.7%
- viability, T/C [10]: 86.2%
- viability, T/C [11]: 81.7%
- viability, T/C [12]: 76.9%
- viability, T/C [13]: 93.5%
- viability, T/C [14]: 76.9%
- viability, T/C [15]: 66.2%
- viability, T/C [16]: 82.2%
- viability, T/C [17]: 77.9%
- viability, T/C [18]: 78.4%
- viability, T/C [19]: 96.2%
- viability, T/C [20]: 78.1%
- viability, T/C [21]: 81.6%
- viability, T/C [22]: 79.1%
- viability, T/C [23]: 92.7%
- viability, T/C [24]: 79%
- viability, T/C [25]: 83.1%
- viability, T/C [26]: 80%
- viability, T/C [27]: 74.6%
- viability, T/C [28]: 82.2%
- viability, T/C [29]: 85.9%
- viability, T/C [30]: 64.5%
- viability, T/C [31]: 90.3%
- viability, T/C [32]: 80.8%
- viability, T/C [33]: 73.5%
- viability, T/C [34]: 79.1%
- viability, T/C [35]: 79.7%
- viability, T/C [36]: 77.4%

Reference: PubChem BioAssay AID1963849 (Molecular Pharmacology Branch, DTP, NCI, 2024)
